# Test system: KB
# Assay: Cytotoxicity against human KB cells
# Format: functional
# Conditions: read-out: ED50 (the source's name)
row,SMILES,EC50 [µg/mL]
1,COc1c(C)c(O)c(C(C)=O)c(OC)c1Cc1c(O)c(C(=O)C(C)C)c2c(c1OC)C=CC(C)(C)O2,5.5
2,CCCC(=O)c1c2c(c(OC(C)=O)c(Cc3c(OC)c(C)c(OC(C)=O)c(C(C)=O)c3OC(C)=O)c1OC(C)=O)C=CC(C)(C)O2,2.55
3,CCCC(=O)c1c(O)c(Cc2c(O)c(C(C)=O)c(O)c(C)c2OC)c(O)c2c1OC(C)(C)C=C2 [BUTYRYLMALLOTOCHROMENE],3.3
4,CCCC(=O)c1c(O)c(Cc2c(OC)c(C)c(O)c(C(C)=O)c2OC)c(OC)c2c1OC(C)(C)C=C2,5.9
5,COc1c(C)c(OC(C)=O)c(C(C)=O)c(OC(C)=O)c1Cc1c(OC(C)=O)c2c(c(C(=O)C(C)C)c1OC(C)=O)OC(C)(C)C=C2,2.65
6,COc1c(C)c(O)c(C(C)=O)c(O)c1Cc1c(O)c2c(c(C(=O)C(C)C)c1O)OC(C)(C)C=C2 [ISOBUTYRYLMALLOTOCHROMENE],0.4

# — ChEMBL document CHEMBL1151103, “Studies on cytotoxic constituents in pericarps of Mallotus japonicus, Part III” (1988)
